From patent US20160002248A1, “GLS1 INHIBITORS FOR TREATING DISEASE” (Board of Regents, The University of Texas System, priority 2014, published 2016)

Experiments:
[1] = molecular target: T1, purified recombinant human GAC (GLS1) (Homo sapiens, UniProt O94925); assay: GLS1 Enzymatic Activity Assay (dual-coupled enzymatic assay); format: biochemical
T1 sequence (O94925 55-598 isoform O94925-3 limits assumed): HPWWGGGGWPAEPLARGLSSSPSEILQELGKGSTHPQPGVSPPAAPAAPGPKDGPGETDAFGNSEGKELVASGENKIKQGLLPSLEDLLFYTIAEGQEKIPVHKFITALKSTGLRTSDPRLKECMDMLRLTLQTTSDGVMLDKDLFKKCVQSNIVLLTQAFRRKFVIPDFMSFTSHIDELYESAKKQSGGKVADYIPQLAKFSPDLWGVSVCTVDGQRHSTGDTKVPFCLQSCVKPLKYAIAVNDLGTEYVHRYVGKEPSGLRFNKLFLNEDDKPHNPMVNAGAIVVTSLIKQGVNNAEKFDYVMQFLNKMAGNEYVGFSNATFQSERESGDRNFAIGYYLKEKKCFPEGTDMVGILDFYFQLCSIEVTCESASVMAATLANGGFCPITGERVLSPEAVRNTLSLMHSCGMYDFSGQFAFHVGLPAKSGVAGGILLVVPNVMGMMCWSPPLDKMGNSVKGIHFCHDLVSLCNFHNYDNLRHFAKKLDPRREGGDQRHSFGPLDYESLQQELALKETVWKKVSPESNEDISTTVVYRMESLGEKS
How it was run: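 Recombinant human GAC (2 nM) preincubated with 50 mM potassium phosphate, then inhibitor (10 min each, RT); 1 mM glutamine, pH 7.4 Hepes buffer, 1% DMSO. Glutamate coupled via glutamate oxidase/HRP to resorufin (Ex 530/Em 590), kinetic or 20-min endpoint; IC50 by four-parameter logistic fit.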

A549 cells = assay: Proliferation Assay (A549 cell viability, Cell Titer Fluor); format: cell-based; conditions: Homo sapiens, 72 hours
How it was run: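 Fluorescence read-out (Cell Titer Fluor, 30 min at 37 °C after reagent) after 72 h compound exposure of A549 cells; EC50 by four-parameter logistic curve fit. Cells: 1000/well, RPMI 1640 + 10% dialyzed FBS, 0.5% DMSO final.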

Structure (SMILES)	IC50 [1]	EC50 (A549 cells)
O=C(Nc1nnc(CCCCc2cc3cc(Cc4ccccc4)[nH]c3nn2)s1)[C@@H](O)c1ccccc1 [Example 5, (S)—N-(5-(4-(6-benzyl-7H-pyrrolo[2,3-c]pyridazin-3-yl)butyl)-1,3,4-thiadiazol-2-yl)-2-hydroxy-2-phenylacetamide]	< 100 nM	100 to 500 nM
CC(C)(O)c1ccc(CNC(=O)c2cn(CCCCc3cc4c(-c5ccc(F)cc5F)c(C5CC5)[nH]c4nn3)nn2)cn1 [Example 161, 1-{4-[6-cyclopropyl-5-(2,4-difluorophenyl)-7H-pyrrolo[2,3-c]pyridazin-3-yl]butyl}-N-{[6-(2-hydroxypropan-2-yl)pyridin-3-yl]methyl}-1H-1,2,3-triazole-4-carboxamide]	< 100 nM	100 to 500 nM
